Experimental data reported in ChEMBL document CHEMBL1129369, “Forskolin carbamates: binding and activation studies with type I adenylyl cyclase” (J Med Chem, 1996).
pEC50, pIC50: −log10 of the molar value.

Key:
Adenylate cyclase type 1 [1] = biological target: T1, Adenylate cyclase type 1 (Homo sapiens, UniProt Q08828); assay: (§1) Inhibition of [125 I]6-IHPP-forskolin binding to adenylate cyclase 1
Target sequence in this assay (Q08828 whole entry): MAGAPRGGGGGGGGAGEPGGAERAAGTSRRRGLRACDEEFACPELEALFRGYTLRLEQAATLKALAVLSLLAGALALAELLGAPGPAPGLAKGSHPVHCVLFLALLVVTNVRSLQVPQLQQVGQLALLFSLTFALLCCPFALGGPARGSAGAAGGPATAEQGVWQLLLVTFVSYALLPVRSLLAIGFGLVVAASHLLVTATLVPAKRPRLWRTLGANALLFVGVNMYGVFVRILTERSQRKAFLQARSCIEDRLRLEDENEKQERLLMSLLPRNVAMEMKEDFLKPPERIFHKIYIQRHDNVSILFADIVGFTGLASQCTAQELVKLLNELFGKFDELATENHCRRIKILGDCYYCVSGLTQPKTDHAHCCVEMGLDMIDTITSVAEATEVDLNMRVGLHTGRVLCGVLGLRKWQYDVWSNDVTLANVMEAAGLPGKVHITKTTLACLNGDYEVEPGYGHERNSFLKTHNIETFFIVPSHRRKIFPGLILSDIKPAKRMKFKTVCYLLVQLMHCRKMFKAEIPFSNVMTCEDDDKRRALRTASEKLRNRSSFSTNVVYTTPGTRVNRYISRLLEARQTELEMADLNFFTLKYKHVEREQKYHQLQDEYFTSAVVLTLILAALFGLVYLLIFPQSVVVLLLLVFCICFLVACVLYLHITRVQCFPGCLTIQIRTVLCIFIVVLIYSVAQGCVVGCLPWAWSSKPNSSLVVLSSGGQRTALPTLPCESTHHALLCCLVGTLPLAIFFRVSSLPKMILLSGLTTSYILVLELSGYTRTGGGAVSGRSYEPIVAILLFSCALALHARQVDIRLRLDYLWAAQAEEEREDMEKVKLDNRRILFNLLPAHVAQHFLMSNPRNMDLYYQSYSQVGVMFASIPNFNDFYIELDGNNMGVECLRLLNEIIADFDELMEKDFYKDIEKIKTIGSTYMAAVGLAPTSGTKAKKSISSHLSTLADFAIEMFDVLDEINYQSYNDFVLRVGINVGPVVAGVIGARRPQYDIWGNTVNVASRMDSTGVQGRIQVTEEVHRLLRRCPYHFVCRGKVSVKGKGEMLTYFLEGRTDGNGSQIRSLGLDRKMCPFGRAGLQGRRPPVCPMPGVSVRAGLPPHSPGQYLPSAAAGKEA

Adenylate cyclase type 1 [2] = biological target: T1, Adenylate cyclase type 1; assay: Ability to activate the conversion of [32P] ATP to [32P]-cyclic AMP mediated by adenylate cyclase 1; type: functional
Target sequence in this assay (Q08828 whole entry): as above

Adenylate cyclase type 1 [3] = biological target: T1, Adenylate cyclase type 1; assay: Conversion of [32P] ATP to [32P]-cyclic AMP mediated by adenylate cyclase 1; type: functional; conditions: for pEC50: read-out: EC50
Target sequence in this assay (Q08828 whole entry): as above

Adenylate cyclase type 1 [4] = biological target: T1, Adenylate cyclase type 1; assay: as §1; remark: listed apart in the source
Target sequence in this assay (Q08828 whole entry): as above

Adenylate cyclase type 1 [5] = biological target: T1, Adenylate cyclase type 1; assay: Maximum stimulation activity measured with 100 uM forskolin mediated by adenylate cyclase 1; type: functional
Target sequence in this assay (Q08828 whole entry, looked up): as the sequence (Q08828 whole entry) above

Compound | pIC50 (Adenylate cyclase type 1 [1]) | pEC50 (Adenylate cyclase type 1 [2]) | pEC50 (Adenylate cyclase type 1 [3]) | pIC50 (Adenylate cyclase type 1 [4]) | Activity (Adenylate cyclase type 1 [5]) [%] | EC50 (Adenylate cyclase type 1 [3])
C=C[C@@]1(C)CC(=O)[C@]2(O)[C@@]3(C)[C@@H](O)CCC(C)(C)[C@@H]3[C@H](O)[C@H](OC(=O)NCCc3ccccn3)[C@@]2(C)O1 | 6.84 | > 5.70 | 5.96 | > 6.82 | 91 | –
C=C[C@@]1(C)CC(=O)[C@]2(O)[C@@]3(C)[C@@H](O)CCC(C)(C)[C@@H]3[C@H](O)[C@H](OC(=O)NCCOC)[C@@]2(C)O1 | 6.76 | < 5.70 | 5.80 | < 6.82 | 97 | –
C=C[C@@]1(C)CC(=O)[C@]2(O)[C@@]3(C)[C@@H](O)CCC(C)(C)[C@@H]3[C@H](OC(=O)NCCN3CCCCC3)[C@H](O)[C@@]2(C)O1 | 6.91 | > 5.70 | 5.77 | > 6.82 | 80 | –
C=C[C@@]1(C)CC(=O)[C@]2(O)[C@@]3(C)[C@@H](O)CCC(C)(C)[C@@H]3[C@H](OC(=O)NCCN3CCCCC3)[C@H](OC(C)=O)[C@@]2(C)O1 | 7.09 | > 5.70 | 6.30 | > 6.82 | 100 | –
C=C[C@@]1(C)CC(=O)[C@]2(O)[C@@]3(C)[C@@H](O)CCC(C)(C)[C@@H]3[C@H](OC(=O)NCCc3ccc(O)cc3)[C@H](O)[C@@]2(C)O1 | 6.63 | > 5.70 | 6.20 | < 6.82 | 86 | –
C=CCNC(=O)O[C@H]1[C@H]2C(C)(C)CC[C@H](O)[C@]2(C)[C@@]2(O)C(=O)C[C@](C)(C=C)O[C@]2(C)[C@H]1O | 6.51 | < 5.70 | 5.46 | < 6.82 | 94 | –
C=C[C@@]1(C)CC(=O)[C@]2(O)[C@@]3(C)[C@@H](O)CCC(C)(C)[C@@H]3[C@H](OC(=O)NCCc3ccccc3)[C@H](O)[C@@]2(C)O1 | 7.19 | > 5.70 | 5.96 | > 6.82 | 72 | –
C=C[C@@]1(C)CC(=O)[C@]2(O)[C@@]3(C)[C@@H](O)CCC(C)(C)[C@@H]3[C@H](OC(=O)NCC3CCCCC3)[C@H](OC(C)=O)[C@@]2(C)O1 | 6.93 | < 5.70 | 5.18 | < 6.82 | 74 | –
C=C[C@@]1(C)CC(=O)[C@]2(O)[C@@]3(C)[C@@H](O)CCC(C)(C)[C@@H]3[C@H](OC(=O)NCCC(C)(C)C)[C@H](OC(C)=O)[C@@]2(C)O1 | 6.57 | < 5.70 | 5.09 | < 6.82 | 84 | –
C=C[C@@]1(C)CC(=O)[C@]2(O)[C@@]3(C)[C@@H](O)CCC(C)(C)[C@@H]3[C@H](O)[C@H](OC(=O)NCCc3ccccc3)[C@@]2(C)O1 | 6.60 | < 5.70 | 5.68 | < 6.82 | 75 | –
C=C[C@@]1(C)CC(=O)[C@]2(O)[C@@]3(C)[C@@H](O)CCC(C)(C)[C@@H]3[C@H](OC(=O)NCC3CCCCC3)[C@H](O)[C@@]2(C)O1 | 6.36 | > 5.70 | 6.00 | < 6.82 | 51 | –
C=C[C@@]1(C)CC(=O)[C@]2(O)[C@@]3(C)[C@@H](O)CCC(C)(C)[C@@H]3[C@H](OC(=O)NCCOC)[C@H](OC(C)=O)[C@@]2(C)O1 | 7.49 | > 5.70 | 6.15 | > 6.82 | 71 | –
C=C[C@@]1(C)CC(=O)[C@]2(O)[C@@]3(C)[C@@H](O)CCC(C)(C)[C@@H]3[C@H](OC(=O)NCCN(C)C)[C@H](OC(C)=O)[C@@]2(C)O1 | 7.14 | > 5.70 | 5.70 | > 6.82 | 100 | –
C=CCNC(=O)O[C@H]1[C@@H](O)[C@H]2C(C)(C)CC[C@H](O)[C@]2(C)[C@@]2(O)C(=O)C[C@](C)(C=C)O[C@]12C | 6.80 | < 5.70 | 5.62 | < 6.82 | 102 | –
C=C[C@@]1(C)CC(=O)[C@]2(O)[C@@]3(C)[C@@H](O)CCC(C)(C)[C@@H]3[C@H](OC(=O)NCCN(C)C)[C@H](O)[C@@]2(C)O1 | 6.61 | < 5.70 | 5.31 | < 6.82 | 131 | –
C=C[C@@]1(C)CC(=O)[C@]2(O)[C@@]3(C)[C@@H](O)CCC(C)(C)[C@@H]3[C@H](OC(=O)NCCN)[C@H](OC(C)=O)[C@@]2(C)O1 | 7.51 | > 5.70 | 6.22 | > 6.82 | 125 | –
C=C[C@@]1(C)CC(=O)[C@]2(O)[C@@]3(C)[C@@H](O)CCC(C)(C)[C@@H]3[C@H](OC(=O)NCCc3ccc(N)cc3)[C@H](OC(C)=O)[C@@]2(C)O1 | 7.41 | > 5.70 | 6.30 | > 6.82 | 55 | –
C=C[C@@]1(C)CC(=O)[C@]2(O)[C@@]3(C)[C@@H](O)CCC(C)(C)[C@@H]3[C@H](O)[C@H](OC(=O)NCCC(=O)OCC)[C@@]2(C)O1 | 6.73 | < 5.70 | 5.44 | < 6.82 | 127 | –
C=C[C@@]1(C)CC(=O)[C@]2(O)[C@@]3(C)[C@@H](O)CCC(C)(C)[C@@H]3[C@H](OC(=O)NCC(C)C)[C@H](O)[C@@]2(C)O1 | 6.23 | < 5.70 | 5.60 | < 6.82 | 88 | –
C=C[C@@]1(C)CC(=O)[C@]2(O)[C@@]3(C)[C@@H](O)CCC(C)(C)[C@@H]3[C@H](OC(=O)NCC(C)C)[C@H](OC(C)=O)[C@@]2(C)O1 | 6.78 | < 5.70 | 5.39 | < 6.82 | 93 | –
C=CCNC(=O)O[C@H]1[C@H]2C(C)(C)CC[C@H](O)[C@]2(C)[C@@]2(O)C(=O)C[C@](C)(C=C)O[C@]2(C)[C@H]1OC(C)=O | 7.12 | < 5.70 | 5.36 | > 6.82 | 80 | –
C=C[C@@]1(C)CC(=O)[C@]2(O)[C@@]3(C)[C@@H](O)CCC(C)(C)[C@@H]3[C@H](OC(=O)NCCO)[C@H](O)[C@@]2(C)O1 | 6.64 | < 5.70 | 5.44 | < 6.82 | 85 | –
C=C[C@@]1(C)CC(=O)[C@]2(O)[C@@]3(C)[C@@H](O)CCC(C)(C)[C@@H]3[C@H](OC(=O)NCCc3ccc(N)cc3)[C@H](O)[C@@]2(C)O1 | 6.79 | < 5.70 | 5.29 | < 6.82 | 83 | –
C=C[C@@]1(C)CC(=O)[C@]2(O)[C@@]3(C)[C@@H](O)CCC(C)(C)[C@@H]3[C@H](OC(=O)NCCc3ccccn3)[C@H](O)[C@@]2(C)O1 | 6.93 | > 5.70 | 5.74 | > 6.82 | 59 | –
C=C[C@@]1(C)CC(=O)[C@]2(O)[C@@]3(C)[C@@H](O)CCC(C)(C)[C@@H]3[C@H](O)[C@H](OC(=O)NCCC(C)(C)C)[C@@]2(C)O1 | 6.22 | < 5.70 | 5.02 | < 6.82 | 58 | –
C=C[C@@]1(C)CC(=O)[C@]2(O)[C@@]3(C)[C@@H](O)CCC(C)(C)[C@@H]3[C@H](O)[C@H](OC(=O)NCCc3ccc(O)cc3)[C@@]2(C)O1 | 7.02 | > 5.70 | 5.85 | > 6.82 | 45 | –
C=C[C@@]1(C)CC(=O)[C@]2(O)[C@@]3(C)[C@@H](O)CCC(C)(C)[C@@H]3[C@H](OC(=O)NCCC)[C@H](OC(C)=O)[C@@]2(C)O1 | 7.12 | < 5.70 | 5.37 | > 6.82 | 80 | –
C=C[C@@]1(C)CC(=O)[C@]2(O)[C@@]3(C)[C@@H](O)CCC(C)(C)[C@@H]3[C@H](OC(=O)NCCc3ccccc3)[C@H](OC(C)=O)[C@@]2(C)O1 | 7.44 | > 5.70 | 5.82 | > 6.82 | 65 | –
C=C[C@@]1(C)CC(=O)[C@]2(O)[C@@]3(C)[C@@H](O)CCC(C)(C)[C@@H]3[C@H](OC(=O)NCCN)[C@H](O)[C@@]2(C)O1 | 6.72 | – | – | – | – | Indeterminate
